Data: US8772500B2, “TRPV3 modulators” (AbbVie Inc., priority 2011, dated 2014)

Key:
human TRPV3 = target: T1, human TRPV3 (Homo sapiens, UniProt Q8NET8); assay: In vitro antagonism of recombinant human TRPV3 activation (FLIPR Tetra calcium assay, 2-APB as agonist); type: cell-based; settings: HEK293 cells stably expressing human TRPV3; 2-APB 80 μM; range class; read-out: IC50 (reported range)
T1 construct: expressed in transfected cells
T1 sequence (Q8NET8 1-790): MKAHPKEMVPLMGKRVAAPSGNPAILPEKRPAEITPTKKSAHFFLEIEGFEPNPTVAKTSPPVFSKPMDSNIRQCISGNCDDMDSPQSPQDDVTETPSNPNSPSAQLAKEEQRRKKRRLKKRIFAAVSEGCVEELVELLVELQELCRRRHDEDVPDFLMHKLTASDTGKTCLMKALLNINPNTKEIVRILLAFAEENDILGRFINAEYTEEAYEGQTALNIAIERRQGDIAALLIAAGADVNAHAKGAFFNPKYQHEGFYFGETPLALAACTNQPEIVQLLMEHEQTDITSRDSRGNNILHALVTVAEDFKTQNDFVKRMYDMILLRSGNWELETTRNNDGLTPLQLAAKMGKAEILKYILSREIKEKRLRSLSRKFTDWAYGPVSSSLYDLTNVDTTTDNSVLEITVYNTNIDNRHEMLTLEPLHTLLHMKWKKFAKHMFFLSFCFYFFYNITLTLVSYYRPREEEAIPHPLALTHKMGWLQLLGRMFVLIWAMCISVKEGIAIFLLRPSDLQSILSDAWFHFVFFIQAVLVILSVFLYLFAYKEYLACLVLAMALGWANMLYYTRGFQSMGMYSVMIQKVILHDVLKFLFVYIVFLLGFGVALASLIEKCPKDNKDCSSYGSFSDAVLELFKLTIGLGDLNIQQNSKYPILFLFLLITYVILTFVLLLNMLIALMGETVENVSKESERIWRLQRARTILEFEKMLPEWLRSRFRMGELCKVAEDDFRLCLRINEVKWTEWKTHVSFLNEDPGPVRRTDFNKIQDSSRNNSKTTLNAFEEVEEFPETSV
Procedure: Test compounds were evaluated for ability to antagonize the activation of recombinant human TRPV3 using FLIPR® Tetra cellular screening. Specifically, on the day prior to the experiment recombinant HEK293 cells that stably express human TRPV3 were removed from tissue culture flasks and plated in growth medium at 20,000 cells/well into Poly-d-lysine coated black/clear 384-well Plate (Corning, 3845) using a Multidrop® dispenser (ThermoScientific, Waltham, Mass.). Prior to the start of the assay, the medium was removed by aspiration, and cells were loaded with 30 μL no-wash FLIPR® Calcium-4 dye (λEX=470-495 nm, λEM=515-575 nm; Molecular Devices, Sunnyvale, Calif.). The cells were then incubated for 90-120 minutes in the dark prior to addition of the test compound.
A double-addition protocol was used. The test compound (i.e., the TRPV3 antagonist) was added at the 10 second time point, followed by the addition of a TRPV3 agonist three minutes later. Each test compound evaluated was first dissolved in DMSO to prepare a 10 mM stock solution. A solution (5×) of the test compound was then prepared in DPBS (Dulbecco's Phosphate Buffered Saline) and 10 μL of that solution was added to the cells at a delivery rate of 40 μL/sec. The TRPV3 agonist used to activate human TRPV3 expressed by the […] was 2-aminoethoxy-diphenyl borate (2-APB; Tocris Cookson, Ellisville, Mo.) at 80 μM. Final assay volume was 50 μL. Total length of an experimental run was 10 minutes.
Changes in fluorescence were measured over time using the FLIPR® instrument. The intensity of the fluorescence was captured and digitally transferred to an interfaced computer. The maximum response minus minimum response was calculated and expressed as the percentage of the maximum 2-APB response in the absence of antagonist. The concentration of 2-APB corresponds to its EC80.
Table 1 reports the IC50 values measured for the test compounds as human TRPV3 antagonists. […] Actual measured values are shown parenthetically after the reported range. In most cases, the values reported are average values from at least two runs (i.e., n≧2).

[1] = In vitro human microsomal stability assay; type: in vitro ADME; settings: human, 0.5 h, 0.5 μM, pH 7.4
Procedure: (§1) Test compounds were evaluated for metabolic stability in an in vitro rat microsomal stability assay using rat (Sprague-Dawley, from BD Biosciences) liver microsomes and/or an in vitro human microsomal stability assay using human (Xenotech) liver microsomes. […] Incubations were carried out at 37° C. with a final incubation volume of 135 μL. […] A 1.5 μL aliquot of reduced nicotine adenine disphosphonucleotide (NADPH) (Chem-Impex Int'L Inc., Lot 12532024) was also added to the time-zero plates.

[2] = In vitro rat microsomal stability assay; type: in vitro ADME, rat (Sprague-Dawley); settings: Sprague-Dawley, rat, 0.5 h, 0.5 μM, pH 7.4
Procedure: as §1

SMILES	IC50 (human TRPV3) [µM]	HUMAN MICROSOMAL STABILITY (% REMAINING AFTER 30 MINUTES) [1] [%]	RAT MICROSOMAL STABILITY (% REMAINING AFTER 30 MINUTES) [2] [%]
OC(c1ncccn1)C1(c2ccc(OC(F)(F)F)cc2)CCC1 (centres unmarked) [Example 31, pyrimidin-2-yl{1-[4-(trifluoromethoxy)phenyl]cyclobutyl}methanol]	1.1 to 5		
OC(c1ncccn1)C1(c2cccc(F)c2)CCC1 (centres unmarked) [Example 33, [1-(3-fluorophenyl)cyclobutyl](pyrimidin-2-yl)methanol]	5.1 to 20		
OC(c1ncccn1)C1(c2ccc(F)c(F)c2)CCC1 (centres unmarked) [Example 35, [1-(3,4-difluorophenyl)cyclobutyl](pyrimidin-2-yl)methanol]	5.1 to 20		
OC(c1ncccn1)C1(c2ccccc2OC(F)(F)F)CCC1 (centres unmarked) [Example 36, pyrimidin-2-yl{1-[2-(trifluoromethoxy)phenyl]cyclobutyl}methanol]	5.1 to 20		
COc1ccc(C(O)C2(c3ccc(Cl)c(Cl)c3)CCC2)nc1 (centres unmarked) [Example 287, [1-(3,4-dichlorophenyl)cyclobutyl](5-methoxypyridin-2-yl)methanol]		15	<0.01
COc1ccnc(C(O)C2(c3ccc(Cl)c(Cl)c3)CCC2)c1 (centres unmarked) [Example 289, [1-(3,4-dichlorophenyl)cyclobutyl](4-methoxypyridin-2-yl)methanol]		4.2	<0.01
O=C1CC(c2cc(C(F)(F)F)ccn2)(C(O)c2ccccn2)C1 (centres unmarked) [Example 293, 3-[hydroxy(pyridin-2-yl)methyl]-3-[4-(trifluoromethyl)pyridin-2-yl]cyclobutanone]		78	69
OC1CC(c2cc(C(F)(F)F)ccn2)([C@H](O)c2ccccn2)C1 (stereo partly drawn) [Example 294, 3-[(S)-hydroxy(pyridin-2-yl)methyl]-3-[4-(trifluoromethyl)pyridin-2-yl]cyclobutanol]		>85	>85
O=C1CC(c2cncc(C(F)(F)F)c2)(C(O)c2ccccn2)C1 (centres unmarked) [Example 295, 3-[hydroxy(pyridin-2-yl)methyl]-3-[5-(trifluoromethyl)pyridin-3-yl]cyclobutanone]		70	8.2
O=C1CC(c2cncc(C(F)(F)F)c2)([C@H](O)c2ccccn2)C1 [Example 296, 3-[(S)-hydroxy(pyridin-2-yl)methyl]-3-[5-(trifluoromethyl)pyridin-3-yl]cyclobutanone]		67	12
O=C1CC(c2ccnc(C(F)(F)F)c2)(C(O)c2ccccn2)C1 (centres unmarked) [Example 298, 3-[hydroxy(pyridin-2-yl)methyl]-3-[2-(trifluoromethyl)pyridin-4-yl]cyclobutanone]		80	59
O=C1CC(c2ccnc(C(F)(F)F)c2)([C@H](O)c2ccccn2)C1 [Example 299, 3-[(S)-hydroxy(pyridin-2-yl)methyl]-3-[2-(trifluoromethyl)pyridin-4-yl]cyclobutanone]		>85	>85
CC1(O)CC(c2ccc(OC(F)(F)F)cc2)(C(O)c2ncccn2)C1 [Example 310, (trans)-3-((S)-hydroxy(pyrimidin-2-yl)methyl)-1-methyl-3-(4-(trifluoromethoxy)phenyl)cyclobutanol]		>85	>85

Second part, the molecule after the results:

IC50 (human TRPV3) [µM]	HUMAN MICROSOMAL STABILITY (% REMAINING AFTER 30 MINUTES) [1] [%]	RAT MICROSOMAL STABILITY (% REMAINING AFTER 30 MINUTES) [2] [%]	SMILES
5.1 to 20			CC(c1cccc(Cl)c1)C1(C(O)c2ccccn2)CCC1 (centres unmarked) [Example 44, {1-[1-(3-chlorophenyl)ethyl]cyclobutyl}(pyridin-2-yl)methanol]
1.1 to 5			CC(c1cccc(F)c1)C1(C(O)c2ccccn2)CCC1 (centres unmarked) [Example 47, {1-[1-(3-fluorophenyl)ethyl]cyclobutyl}(pyridin-2-yl)methanol]
5.1 to 20			CC(c1ccccc1F)C1(C(O)c2ccccn2)CCC1 (centres unmarked) [Example 48, {1-[1-(2-fluorophenyl)ethyl]cyclobutyl}(pyridin-2-yl)methanol]
5.1 to 20			CC(c1ccccc1)C1(C(O)c2ccccn2)CCC1 (centres unmarked) [Example 51, [1-(1-phenylethyl)cyclobutyl](pyridin-2-yl)methanol]
1.1 to 5			CC(c1ccc(C(F)(F)F)cc1)C1(C(O)c2ccccn2)CCC1 (centres unmarked) [Example 53, pyridin-2-yl(1-{1-[4-(trifluoromethyl)phenyl]ethyl}cyclobutyl)methanol]
5.1 to 20			OC(c1ccccn1)C1(c2ccccc2)CCOCC1 (centres unmarked) [Example 60, (4-phenyltetrahydro-2H-pyran-4-yl)(pyridin-2-yl)methanol]
5.1 to 20			OC(c1ccccn1)C1(c2cccc(F)c2)CCOCC1 (centres unmarked) [Example 61, [4-(3-fluorophenyl)tetrahydro-2H-pyran-4-yl](pyridin-2-yl)methanol]
5.1 to 20			OC(c1ccccn1)C1(c2ccc(F)cc2)CCOCC1 (centres unmarked) [Example 62, [4-(4-fluorophenyl)tetrahydro-2H-pyran-4-yl](pyridin-2-yl)methanol]
	64	55	O=C1CC(c2cccc(C(F)(F)F)c2)([C@@H](O)c2ccccn2)C1 [Example 243, 3-[(R)-hydroxy(pyridin-2-yl)methyl]-3-[3-(trifluoromethyl)phenyl]-cyclobutanone]
	71	59	OC(c1ccccn1)C1(C2(O)CCOC2)CCC1 (centres unmarked) [Example 246, 3-{1-[hydroxy(pyridin-2-yl)methyl]cyclobutyl}tetrahydrofuran-3-ol]
	44	55	O=C1CC(c2cccc(OC(F)(F)F)c2)([C@H](O)c2ccccn2)C1 [Example 256, 3-[(S)-hydroxy(pyridin-2-yl)methyl]-3-[3-(trifluoromethoxy)phenyl]-cyclobutanone]
	42	57	O=C1CC(c2cccc(OC(F)(F)F)c2)([C@@H](O)c2ccccn2)C1 [Example 257, 3-[(R)-hydroxy(pyridin-2-yl)methyl]-3-[3-(trifluoromethoxy)phenyl]-cyclobutanone]
	66	82	O=C1CC(c2ccc(F)c(Cl)c2)([C@H](O)c2ccccn2)C1 [Example 268, 3-(3-chloro-4-fluorophenyl)-3-[(S)-hydroxy(pyridin-2-yl)methyl]-cyclobutanone]
	>85	16	OC(c1ccccn1)C1(C2CCOC2)CCC1 (centres unmarked) [Example 284, pyridin-2-yl[1-(tetrahydrofuran-3-yl)cyclobutyl]methanol]
	>85	2.0	OC(c1ccccn1)C1(c2ccnc(C(F)(F)F)c2)CC2(C1)OCCO2 (centres unmarked) [Example 297, pyridin-2-yl{2-[2-(trifluoromethyl)pyridin-4-yl]-5,8-dioxaspiro[3.4]oct-2-yl}methanol]
